According to US7396853B2, “2-phenyl-3,3,3-trifluoro-2-hydroxy-propionic acid derivatives” (Hoffmann-La Roche Inc., priority 2005, dated 2008):

Legend:
[1] = molecular target: T1, human GABABR1aR2a (Homo sapiens, UniProt O75899+Q9UBS5); assay: Intracellular Ca2+ mobilization assay in CHO-GABABR1aR2a-Gα16 cell (enhancer concentration-response at 10 nM GABA); format: cell-based; details: for EC50: enhancer potency in presence of 10 nM GABA (EC10), CHO cells expressing human GABABR1aR2a and Gα16; for Emax: maximum enhancing effect in presence of 10 nM GABA (EC10), normalized to 10 μM GABA alone = 100%, 10 nM GABA alone = 0%, enhancer 0.001-30 μM applied 15 min before GABA
T1 construct: expressed in transfected cells
T1 sequence (Q9UBS5 15-961 limits assumed): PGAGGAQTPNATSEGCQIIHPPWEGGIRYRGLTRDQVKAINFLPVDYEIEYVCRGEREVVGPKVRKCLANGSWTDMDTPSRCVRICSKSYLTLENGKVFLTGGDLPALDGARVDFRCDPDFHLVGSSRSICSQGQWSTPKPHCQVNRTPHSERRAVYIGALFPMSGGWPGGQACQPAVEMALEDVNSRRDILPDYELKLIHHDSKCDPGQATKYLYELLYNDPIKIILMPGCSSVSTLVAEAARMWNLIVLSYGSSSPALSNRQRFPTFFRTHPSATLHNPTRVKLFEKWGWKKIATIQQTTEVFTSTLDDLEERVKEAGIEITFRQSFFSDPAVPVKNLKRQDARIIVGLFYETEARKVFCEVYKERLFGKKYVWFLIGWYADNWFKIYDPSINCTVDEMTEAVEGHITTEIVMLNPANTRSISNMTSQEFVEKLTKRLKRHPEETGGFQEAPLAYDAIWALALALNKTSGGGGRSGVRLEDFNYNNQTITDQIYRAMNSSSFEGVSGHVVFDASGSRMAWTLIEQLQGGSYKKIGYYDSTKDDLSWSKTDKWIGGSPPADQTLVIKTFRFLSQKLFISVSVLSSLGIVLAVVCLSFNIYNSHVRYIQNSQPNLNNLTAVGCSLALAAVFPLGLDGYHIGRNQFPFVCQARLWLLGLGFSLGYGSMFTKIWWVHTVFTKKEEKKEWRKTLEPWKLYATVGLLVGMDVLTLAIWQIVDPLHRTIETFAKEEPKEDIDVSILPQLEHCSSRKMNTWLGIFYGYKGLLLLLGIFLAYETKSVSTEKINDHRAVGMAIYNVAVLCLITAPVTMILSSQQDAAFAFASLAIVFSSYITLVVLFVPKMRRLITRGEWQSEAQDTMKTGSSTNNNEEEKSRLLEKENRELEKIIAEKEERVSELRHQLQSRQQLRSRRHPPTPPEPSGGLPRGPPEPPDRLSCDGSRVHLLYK
T1 sequence (O75899 42-941): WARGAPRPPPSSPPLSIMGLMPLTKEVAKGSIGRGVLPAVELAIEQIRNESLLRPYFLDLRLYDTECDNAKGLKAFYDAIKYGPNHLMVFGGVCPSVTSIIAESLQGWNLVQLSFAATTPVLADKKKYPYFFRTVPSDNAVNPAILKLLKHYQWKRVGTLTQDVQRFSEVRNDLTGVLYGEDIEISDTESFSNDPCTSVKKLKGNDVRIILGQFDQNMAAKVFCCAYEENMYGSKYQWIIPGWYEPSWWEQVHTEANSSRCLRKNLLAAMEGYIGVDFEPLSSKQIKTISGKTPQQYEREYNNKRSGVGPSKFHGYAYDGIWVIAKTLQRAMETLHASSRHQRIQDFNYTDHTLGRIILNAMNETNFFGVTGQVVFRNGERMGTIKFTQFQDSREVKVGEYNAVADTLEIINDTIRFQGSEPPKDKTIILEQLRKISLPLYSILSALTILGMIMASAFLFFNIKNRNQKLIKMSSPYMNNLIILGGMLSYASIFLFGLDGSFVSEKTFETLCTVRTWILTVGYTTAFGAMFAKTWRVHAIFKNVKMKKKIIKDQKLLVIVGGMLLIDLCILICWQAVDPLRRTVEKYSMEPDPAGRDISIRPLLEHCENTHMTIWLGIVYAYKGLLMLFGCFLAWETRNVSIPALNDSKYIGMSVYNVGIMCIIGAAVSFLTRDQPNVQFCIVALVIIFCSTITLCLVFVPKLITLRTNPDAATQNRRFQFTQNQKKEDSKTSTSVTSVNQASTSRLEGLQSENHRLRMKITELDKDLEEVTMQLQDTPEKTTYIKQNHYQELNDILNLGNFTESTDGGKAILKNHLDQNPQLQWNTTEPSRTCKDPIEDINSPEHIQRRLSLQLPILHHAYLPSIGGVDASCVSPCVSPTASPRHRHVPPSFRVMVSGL
Protocol: (§1) Intracellular Ca^2+ Mobilization Assay
(§2) The Chinese Hamster Ovary (CHO) cells stably expressing human GABABR1aR2a and Gα16 were seeded at 5×10^4 cells/well in the poly-D-lysine treated, 96-well, black/clear-bottomed plates (BD Biosciences, Palo Alto, Calif.). […] Probenecid (250 mM) (catalog No. P8761) was from Sigma, Buchs, Switzerland. […] The enhancers were applied 15 min before the application of the GABA. For GABA shift assay, concentration-response curves of GABA (0.0003-30 μM) were determined in the absence and presence of 10 μM enhancer. […] Responses were measured as peak increase in fluorescence minus basal, normalized to the maximal stimulatory effect induced by 10 μM GABA alone (considered 100%) and 10 nM GABA alone (considered 0%).

[2] = molecular target: T1, human GABABR1aR2a; assay: GABA shift assay (GABA concentration-response with and without 10 μM enhancer, FLIPR Ca2+ mobilization in CHO-GABABR1aR2a-Gα16 cell); format: cell-based; details: GABA 0.0003-30 μM, log ratio
Protocol: as §1, §2

SMILES	EC50 [1]	Emax [1]	GABA shift Log [EC50 (GABA + 10 μM cp)/EC50 (GABA alone)] [2]
Cc1cc(C(C)(C)C)c2c(c1)C(O)(C(F)(F)F)C(=O)O2 (racemic) [Example 9, (R,S)-7-tert-Butyl-3-hydroxy-5-methyl-3-trifluoromethyl-3H-benzofuran-2-one]	0.36 µM	62%	−1.3
CC(C)(C)c1cc(C(C)(C)C)c(O)c(C(O)(C(=O)O)C(F)(F)F)c1 (racemic) [Example 3, (R,S)-2-(3,5-Di-tert-butyl-2-hydroxy-phenyl)-3,3,3-trifluoro-2-hydroxy-propionic acid]	0.32 µM	70%	−1
COC(=O)C(O)(c1cc(C(C)(C)C)cc(C(C)(C)C)c1)C(F)(F)F (racemic) [Example 7, (R,S)-2-(3,5-Di-tert-butyl-phenyl)-3,3,3-trifluoro-2-hydroxy-propionic acid methyl ester]	2.1 µM	66%	−0.9
